One assay deals with SB.mhdgc-1. Description: AC50 for growth inhibition (viability) (log10 M); higher = less potent. The conditions noted are these: SB.mhdgc-1 (hereditary c.1380delA CDH1 gastric cancer). A digest of the protocol:
(§1)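 After 48 h with compound, plates received CellTiter-Glo for 30 min at room temperature and were read for luminescence on a ViewLux. The cells were patient-derived gastric cancer lines of hereditary or sporadic origin, plated at 500 cells in 5 μL medium per 1536 well and pinned with 23 nL compound in DMSO, at 11 threefold dilutions from a final 46 μM. For the log half-maximal activity concentration, DMSO-normalised viability was fitted with four parameters and only high-quality curve classes were kept.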

For the next assay, the system named is SB.msgc-1. The description is as above. Particulars: SB.msgc-1 (sporadic gastric cancer). An outline of the steps:
as §1

Structures are written as SMILES.

`Cc1c(C(=O)c2cccc3ccccc23)c2cccc3c2n1[C@H](CN1CCOCC1)CO3`: the figures for the “AC50 for growth inhibition (log10 M)” value with SB.mhdgc-1 and with SB.msgc-1 were -4.93 and -5.08, respectively.
With `CNc1nccc(-c2cccnc2Oc2cc(C(=O)Nc3cccc(C(F)(F)F)c3)ccc2C)n1` [AMG-Tie2-1], the figures for the “AC50 for growth inhibition (log10 M)” value in the assay with SB.mhdgc-1 and in the assay with SB.msgc-1 were -4.83 and -4.63, respectively.
The matching figures for `COC1=C(OCCCN2CCOCC2)C=C3N=CC=C(OC4=CC=C(C=C4F)\C5=C\N=C(\NC6=CC=C(F)C=C6)N(C)C5=O)C3=C1` [AMG-51]: -5.03 and -4.73.
The matching figures for `C[C@]12Cc3cn[nH]c3C[C@@H]1CC[C@@H]1[C@@H]2CC[C@@]2(C)[C@H]1CC[C@]2(C)O` [Stanozolol]: -5.98 and -5.63.
The matching figures for `CN1CCN(c2cc(C(=O)Nc3ccc4c(c3)-c3c(c(C(N)=O)nn3-c3ccc(F)cc3)CC4)c(Cl)cn2)CC1` [PHA-408]: -5.88 and -5.93.
As for `COC1=CC2=C(C=C1OC)[C@H]3[C@@H](CO2)OC4=C(C=CC5=C4\C=C/C(C)(C)O5)C3=O` [Deguelin], the “AC50 for growth inhibition (log10 M)” value was -5.38 in the assay with SB.mhdgc-1 and -5.23 with SB.msgc-1.
The matching figures for `CC1(C)CC(=O)c2c(C(F)(F)F)nn(-c3ccc(C(N)=O)c(NC4CCC(O)CC4)c3)c2C1` (stereo not drawn) [SNX-2112]: -6.48 and -7.43.
The matching figures for `O=C(NCCCNc1nc(Nc2cccc(NC(=O)N3CCCC3)c2)ncc1I)c1cccs1` [BX-795]: -4.83 and -4.88.
Take `CC(=O)O[C@@]1(CC[C@H]2[C@@H]3\C=C(Cl)/C4=C/C(=O)[C@@H]5C[C@@H]5[C@]4(C)[C@H]3CC[C@]12C)C(C)=O` [Cyproterone acetate]: the “AC50 for growth inhibition (log10 M)” value was -5.08 in the assay on SB.mhdgc-1 and -4.68 with SB.msgc-1.
The corresponding values for `N#C/C(=C(/N)Sc1ccc(N)cc1)c1ccccc1C(F)(F)F` [SL-327] are -5.28 and -5.13.
On to `COC1=CC=C(C=C1)/C2=C(O)/C(=O)C3=C(O)C=C(O)C(=C3O2)CC=C(C)C` [Icaritin], for which the “AC50 for growth inhibition (log10 M)” value in the assay on SB.mhdgc-1 is -4.88; in the assay with SB.msgc-1, -4.63.
The matching figures for `CCN(CC)CCCCNc1ncc2c(n1)N(C)C(=O)N(c1c(Cl)c(OC)cc(OC)c1Cl)C2`: -4.78 and -4.63.
The corresponding values for `CN(C)CC(=O)N1CCC(CC1)C2=CC=C(NC(=O)C3=NC(=C[NH]3)C#N)C(=C2)\C4=C\CCCC4` are -6.28 and -5.23.
The corresponding values for `COc1cc2c(Nc3ccc(Br)cc3F)ncnc2cc1OCC1CCN(C)CC1` [Vandetanib] are -4.68 and -4.73.
In the case of `c1ccc(-c2oc3ncnc(NC[C@@H]4CCCO4)c3c2-c2ccccc2)cc1` [AIM-100], the “AC50 for growth inhibition (log10 M)” value in the assay on SB.mhdgc-1 was -5.08; with SB.msgc-1, -5.73.
The matching figures for `CC[C@@]1(O)C(=O)OC\C2=C1\C=C\3N(CC4=C3N=C5C=CC=CC5=C4)C2=O` [Camptothecin]: -7.93 and -7.43.
In the case of `CCC1=C2CN3C(=O)\C4=C(/C=C3/C2=NC5=CC=C(O)C=C15)[C@@](O)(CC)C(=O)OC4` [SN-38], the entries for the “AC50 for growth inhibition (log10 M)” value in the assay on SB.mhdgc-1 and with SB.msgc-1 were -8.48 and -8.08, respectively.
The matching figures for `CCn1nnc2c(N3CCOCC3)nc(-c3ccc(NC(=O)Nc4ccc(C(=O)N5CCN(C)CC5)cc4)cc3)nc21` [PKI-402]: -5.43 and -5.88.
The matching figures for `COC1=C(CC=C(C)C)C2=C(\C=C/C(=O)O2)C=C1` [Osthol]: -5.78 and -5.53.
Turning to `COc1ccc([S+](=O)([O-])Nc2cccnc2Nc2ccc(O)cc2)cc1` [E-7010], the “AC50 for growth inhibition (log10 M)” value with SB.mhdgc-1 is -5.83; in the assay on SB.msgc-1, -6.93.
Take `CN1[C@@H]2CC(O)C[C@H]1[C@@H]1O[C@@H]12` (stereo partly drawn) [Scopine]: the “AC50 for growth inhibition (log10 M)” value with SB.mhdgc-1 is -4.78; in the assay on SB.msgc-1, -4.83.
The matching figures for `CC(NCc1ccc2c(c1)[nH]/c(=N\C(=O)c1ccc(-c3cn[nH]c3)s1)n2CC(C)(C)O)C(C)(C)C` (stereo not drawn): -5.43 and -6.18.
The matching figures for `CC[C@@]1(O)C(=O)OCC/2=C1/C=C3\N(CC4=CC5=CC(=CC=C5N=C34)O)C2=O` [10-hydroxycamptothecin]: -7.83 and -7.33.
Regarding `COc1cc(F)c(C(C)C)cc1-c1ccc(C(F)(F)F)cc1CN1C(=O)O[C@H](c2cc(C(F)(F)F)cc(C(F)(F)F)c2)[C@@H]1C` [Anacetrapib], the “AC50 for growth inhibition (log10 M)” value was -5.13 with SB.mhdgc-1 and -5.48 with SB.msgc-1.
The corresponding values for `Cc1nc(Nc2n[nH]c3c2CN(C(=O)N[C@H](CN(C)C)c2ccccc2)C3(C)C)c2sccc2n1` are -5.98 and -6.53.
Regarding `COc1cccc2c(NCc3ccccc3)nc(-n3c(N)nc4ccccc43)nc12`, the figures for the “AC50 for growth inhibition (log10 M)” value with SB.mhdgc-1 and in the assay on SB.msgc-1 were -5.13 and -5.08, respectively.
On to `COc1cc2ncnc(Nc3cccc(Br)c3)c2cc1OC`, for which the “AC50 for growth inhibition (log10 M)” value was -7.08 in the assay on SB.mhdgc-1 and -6.88 in the assay on SB.msgc-1.
The corresponding values for `C[C@H]1CN(C[C@@H](C)O1)CC(=O)NC2=CC=C3SC4=C(CC3=C2)C=CC=C4\C5=C\C(=O)\C=C(/O5)N6CCOCC6` are -5.23 and -5.28.
The corresponding values for `NC1=NC=C(C=C1)C2=CC=C3N=CC\4=C(N(C(=O)\C=C4)C5=CC(=CC=C5)C(F)(F)F)C3=C2` [Torin-2] are -6.48 and -6.78.
With `CN(C)C1=CC=C(C=C1)C(C2=CC=C(C=C2)N(C)C)=C/3\C=C/C(/C=C3)=[N+](C)C` [Methylrosaniline chloride], the “AC50 for growth inhibition (log10 M)” value is -6.03 with SB.mhdgc-1 and -5.78 in the assay on SB.msgc-1.
In the case of `CCOC(=O)C(C#N)C\1C2=CC(=CC=C2O\C(=C1C(=O)OCC)N)Br` (stereo not drawn) [HA-14-1], the “AC50 for growth inhibition (log10 M)” value in the assay with SB.mhdgc-1 is -4.68; in the assay with SB.msgc-1 it was -4.63.
For the compound `CC(C(=O)O)c1ccc2c(c1)CC(=O)c1ccccc1S2` (stereo not drawn) [Zaltoprofen], the figures for the “AC50 for growth inhibition (log10 M)” value with SB.mhdgc-1 and in the assay on SB.msgc-1 were -5.43 and -5.13, respectively.
The corresponding values for `O=C/1NC(=O)C(=C1C2=CN=C3C=CC=C[N]23)/C4=C[N]5CCN(CC6=C5C4=CC=C6)C(=O)N7CCOCC7` [GSK3 Inhibitor] are -5.93 and -4.63.
For `CN(c1ncccc1CNc1nc(Nc2ccc3c(c2)CC(=O)N3)ncc1C(F)(F)F)[S+](C)(=O)[O-]`, the “AC50 for growth inhibition (log10 M)” value with SB.mhdgc-1 was -5.18; with SB.msgc-1 it was -5.13.

For the origin of these results see the supplement of paper PMC5412046.
